Experimental data from patent US5846742A, “Selecting substances for treating glucocorticoid-mediated inflammation or immune diseases using Tripterygium wilfordii Hook F extracts” (Board of Regents, The University of Texas System, priority 1997, dated 1998).
Converted amounts (≈) assume the structure as drawn. “And” between values parts separate entries of the source, which are not always exact repeats. Equal values may be shown once. Read-outs that look alike come from different tables or passages of the source.

How the values were obtained:
IL-2R = IL-2R expression by PHA-activated T cells, 924; format: cell-based, human
T cells [1] = test: PHA-induced T cell proliferation, wilforonide (924); format: cell-based, human; settings: for Mean cpm: control 42.0
From the text: The molecular groups responsible for the immune suppressive function of these compounds are unknown, however, the core structure of diterpenoids which may be related to their activity consists of an α-β-unsaturated 5 element lactone which can be identified by Kedde reagents. HPLC was used to fractionate the ethyl acetate extract of TwHF and the Kedde reagents were employed to trace the fractions. Then, the effect of selected fractions on the in vitro IL-2 production and [^3 H]-thymidine incorporation by PHA-activated T cells was determined. Fractions that inhibit these T cell functions were selected and the chromatographic pattern was identified with HPLC. One fraction was further purified with HPLC and crystallized repeatedly; a pure, crystallized compound was obtained and designated "924".
[^3 H]-thymidine was added for the last 14 hours of culture. Each concentration was run in quadruplicate (4 times) and the results for each concentration averaged to provide a mean. The mean cpm×10^3 values were combined and expressed as a percent of T cell inhibition.
or absence of the indicated concentrations of wilforonide for 3 days.
[^3 H]-Thymidine was added for the last 14 hours. Data are from 4
independent experiments.

Solubility of 924 = format: physicochemical
Experimental: The dried woody skinned part of the root of TwHF was extracted with ethanol. The solution was concentrated at reduced pressure, and the residue was dissolved in ethyl acetate. This solution was passed through Al2 O3 with ethanol as an eluent. The eluate was evaporated and the residue chromatographed on silica gel with chloroform, chloroform-ether and ethyl acetate as successive eluent. The fractions eluted with chloroform-ether were purified on a preparative HPLC column packed with Nova-Pak C18 and equipped with a 214 detector. Methanol-water was the mobile phase. A fraction having positive reaction to Kedde reagent was collected and extracted with chloroform. The chloroform solution was evaporated to dryness and the residue crystallized in dichloromethane-hexane to yield 924.

T cells [2] = test: Antigen (SK)-induced T cell proliferation, wilforonide; format: cell-based, human; settings: for IC50: 120 h, read-out: ID50, antigen-induced T cell proliferation; for IC50 / inhibition at 0.01 µg/mL: 5 days
Experimental: The cells were allowed to culture for five days. The cultures were pulsed with [^3 H]-thymidine for the last 24 hours of culture. […] ID50 were calculated based on the regression formula by using the fx-3600 calculator. T cells cultured with SK or SK+IL-2 or SK+PMA gave cpm of 1.87×10^3, 4.99×10^3 and 6.67×10^3, respectively.
*T cells were cultured with or without SK(1 mg/ml) or SK plus IL2(50
μ/ml) or SK plus PMA(.2 ng/ml) in the presence or absence of indicated
concentrations of wilforonide for 5 days. Cultures were pulsed with
[^3 H]-thymidine for the last 24 hours. Data represent the mean of th
experiments. ID50 were calculated based on the regression formula by
using the fx3600 calculator. T cells cultured with SK or SL + IL2 or SK +

[3] = tested on: IL-2 production by T cells; test: PHA-induced IL-2 production, wilforonide (924); format: cell-based, human; settings: for IL-2, mean: control 21.395
Experimental: The effects of wilforonide on IL-2 production was also examined. […] Cell-free supernatants were diluted 1 to 80 and the IL-2 content assayed with CTLL-2 cells.

PHA-stimulated T cells = test: Viability of PHA-stimulated T cells, 924; format: cell-based, human
[4] = Viability of PHA-stimulated T cells, 924; format: cell-based, human; settings: t cells; 1,000 ng/ml; 0 ng/ml=22% of control; FIG. 20D; read-out: Cell viability, % of control
T cells [5] = test: Antigen (SK)-induced T cell proliferation, wilforonide; format: cell-based; settings: Homo sapiens, read-out: % inhibition of [3H]-thymidine incorporation

Q: For `C[C@]12CCC3=C(COC3=O)[C@@H]1CCC(=O)C2` (relative stereo) [Wilforonide, naphtho-[1,2-c] furan-3,7(1H,5H)-dione, 4,5a,6,8,9,9a-hexahydro-5a-methyl(5aR-trans)-[104331-87-5]], which IL-2R expression (IL-2R; 500 ng/ml) is on record?
A: did not affect the IL-2R expression

Q: And the IL-2R expression (IL-2R; PHA-activated T cells)?
A: no effect

Q: What about the “cpm, individual experiments 1-4” value (T cells [1]; 10 ng/ml, PHA 0.5 μg/ml, 3 days) of the same compound?
A: 23.5 cpm × 10^3 and 37.1 cpm × 10^3 and 57.5 cpm × 10^3 and 36.3 cpm × 10^3

Q: And the Mean cpm (T cells [1]; 10 ng/ml)?
A: 38.6 cpm × 10^3

Q: What about the “cpm, individual experiments 1-4” value (T cells [1]; 50 ng/ml) of the same compound?
A: 30.2 cpm × 10^3 and 35.3 cpm × 10^3 and 57.0 cpm × 10^3 and 44.8 cpm × 10^3

Q: What about the Mean cpm (T cells [1]; 50 ng/ml) of the same compound?
A: 41.8 cpm × 10^3

Q: And the “cpm, individual experiments 1-4” value (T cells [1]; 100 ng/ml)?
A: 13.0 cpm × 10^3 and 37.6 cpm × 10^3 and 55.2 cpm × 10^3 and 26.7 cpm × 10^3

Q: What about the Mean cpm (T cells [1]; 100 ng/ml) of the same compound?
A: 33.1 cpm × 10^3

Q: And the “cpm, individual experiments 1-4” value (T cells [1]; 200 ng/ml)?
A: 6.8 cpm × 10^3 and 33.9 cpm × 10^3 and 56.5 cpm × 10^3 and 26.4 cpm × 10^3

Q: And the Mean cpm (T cells [1]; 200 ng/ml)?
A: 30.9 cpm × 10^3

Q: And the “cpm, individual experiments 1-4” value (T cells [1]; 500 ng/ml)?
A: 0.3 cpm × 10^3 and 19.7 cpm × 10^3 and 30.9 cpm × 10^3 and 11.3 cpm × 10^3

Q: And the Mean cpm (T cells [1]; 500 ng/ml)?
A: 15.6 cpm × 10^3

Q: What about the T cell proliferation (T cells [1]; 1,000 ng/ml, FIG. 20C) of the same compound?
A: no cell proliferation was evident

Q: And the inhibition at 0.01 µg/mL (T cells [1]; Homo sapiens, T-cell, 72 h, 10 ng/ml, PHA 0.5 μg/ml, 3 days)?
A: 8.09%

Q: What about the IC50 (T cells [1]; Homo sapiens, T-cell, 72 h, PHA 0.5 μg/ml, 3 days, read-out: ID50, PHA-induced T cell proliferation) of the same compound?
A: 0.391 µg/mL (≈ 1.78 µM)

Q: And the inhibition at 0.001 µg/mL (T cells [1]; Homo sapiens, T-cell, 1 ng/ml, PHA, read-out: Degree of inhibition of T cell proliferation)?
A: 14.6%

Q: What about the inhibition at 0.05 µg/mL (T cells [1]; Homo sapiens, T-cell, 50 ng/ml, PHA) of the same compound?
A: 0.48%

Q: And the inhibition at 0.1 µg/mL (T cells [1]; Homo sapiens, T-cell, 100 ng/ml, PHA, read-out: % inhibition)?
A: 21.2%

Q: And the inhibition at 0.1 µg/mL (T cells [1]; Homo sapiens, T-cell, 100 ng/ml, PHA, read-out: Degree of inhibition of T cell proliferation)?
A: 54.2%

Q: And the inhibition at 0.2 µg/mL (T cells [1]; Homo sapiens, T-cell, 200 ng/ml, PHA)?
A: 26.4%

Q: What about the inhibition at 0.5 µg/mL (T cells [1]; Homo sapiens, T-cell, 500 ng/ml, PHA) of the same compound?
A: 62.9%

Q: And the Solubility (Solubility of 924)?
A: soluble in ethanol, and ethanol and chloroform

Q: What about the IC50 (T cells [2]; Homo sapiens, T-cell, SK + IL-2 (50 u/ml)) of the same compound?
A: 0.476 µg/mL

Q: What about the IC50 (T cells [2]; Homo sapiens, T-cell, SK + PMA (0.2 ng/ml)) of the same compound?
A: 0.613 µg/mL

Q: And the IC50 (T cells [2]; Homo sapiens, T-cell, SK)?
A: 0.127 µg/mL (≈ 0.577 µM)

Q: What about the inhibition at 0.01 µg/mL (T cells [2]; Homo sapiens, T-cell, SK + IL-2, 10 ng/ml, read-out: % inhibition of [3H]-thymidine incorporation) of the same compound?
A: 19.6%

Q: What about the inhibition at 0.5 µg/mL (T cells [2]; Homo sapiens, T-cell, SK + IL-2, 500 ng/ml, read-out: % inhibition of [3H]-thymidine incorporation) of the same compound?
A: 61.7%

Q: And the inhibition at 0.01 µg/mL (T cells [2]; Homo sapiens, T-cell, SK + PMA, 10 ng/ml, read-out: % inhibition of [3H]-thymidine incorporation)?
A: 22.7%

Q: What about the inhibition at 0.05 µg/mL (T cells [2]; Homo sapiens, T-cell, SK + PMA, 50 ng/ml, read-out: % inhibition of [3H]-thymidine incorporation) of the same compound?
A: 17.7%

Q: And the inhibition at 0.5 µg/mL (T cells [2]; Homo sapiens, T-cell, SK + PMA, 500 ng/ml, read-out: % inhibition of [3H]-thymidine incorporation)?
A: 53.3%

Q: What about the inhibition at 0.01 µg/mL (T cells [2]; Homo sapiens, T-cell, SK, 10 ng/ml, read-out: % inhibition of [3H]-thymidine incorporation) of the same compound?
A: 42.1%

Q: And the “Inhibition of response to SK on adding IL2 or PMA” value (T cells [2]; low concentrations)?
A: partially overcome by adding IL2 or PMA

Q: And the “IL-2, individual experiments 1-4” value ([3]; 10 ng/ml, PHA 1 μg/ml, overnight)?
A: 1.628 unit/ml and 20.723 unit/ml and 27.374 unit/ml and 3.385 unit/ml

Q: And the “IL-2, mean” value ([3]; 10 ng/ml)?
A: 13.278 unit/ml

Q: And the “IL-2, individual experiments 1-4” value ([3]; 50 ng/ml)?
A: 1.664 unit/ml and 26.983 unit/ml and 4.509 unit/ml and 6.042 unit/ml

Q: What about the “IL-2, mean” value ([3]; 50 ng/ml) of the same compound?
A: 9.795 unit/ml

Q: What about the “IL-2, individual experiments 1-4” value ([3]; 100 ng/ml) of the same compound?
A: 0.800 unit/ml and 11.160 unit/ml and 10.170 unit/ml and 4.982 unit/ml

Q: And the “IL-2, mean” value ([3]; 100 ng/ml)?
A: 6.803 unit/ml

Q: And the “IL-2, individual experiments 1-4” value ([3]; 200 ng/ml)?
A: 0.850 unit/ml and 10.301 unit/ml and 8.502 unit/ml and 1.773 unit/ml

Q: What about the “IL-2, mean” value ([3]; 200 ng/ml) of the same compound?
A: 5.357 unit/ml

Q: And the inhibition at 0.01 µg/mL ([3]; Homo sapiens, T-cell, 10 ng/ml)?
A: 37.9%

Q: What about the inhibition at 0.05 µg/mL ([3]; Homo sapiens, T-cell, 50 ng/ml) of the same compound?
A: 54.2%

Q: What about the inhibition at 0.1 µg/mL ([3]; Homo sapiens, T-cell, 100 ng/ml) of the same compound?
A: 68.2%

Q: What about the inhibition at 0.2 µg/mL ([3]; Homo sapiens, T-cell, 200 ng/ml) of the same compound?
A: 75%

Q: And the IC50 ([3]; Homo sapiens, T-cell, PHA 1 μg/ml, overnight, read-out: ID50, PHA-induced IL-2 production)?
A: 0.0421 µg/mL (≈ 0.191 µM)

Q: What about the “Viability of PHA-stimulated T cells” value (PHA-stimulated T cells; 1 ng/ml up to 1000 ng/ml) of the same compound?
A: did not affect the viability of PHA-stimulated T cells

Q: And the Cell viability (PHA-stimulated T cells; 1 to 500 ng/ml)?
A: did not differ significantly in terms of cell viability

Q: What about the “in vitro ID50/LD50 of T cell proliferation” value (PHA-stimulated T cells; t cells) of the same compound?
A: more than 10

Q: And the viability [4]?
A: 35%

Q: What about the inhibition at 0.05 µg/mL (T cells [5]; SK + IL-2, 50 ng/ml) of the same compound?
A: 12.4%

Q: And the inhibition at 0.1 µg/mL (T cells [5]; SK + IL-2, 100 ng/ml)?
A: 14.5%

Q: And the inhibition at 1 µg/mL (T cells [5]; SK + IL-2, 1,000 ng/ml)?
A: 86.2%

Q: What about the inhibition at 0.1 µg/mL (T cells [5]; SK + PMA, 100 ng/ml) of the same compound?
A: 20.3%

Q: What about the inhibition at 1 µg/mL (T cells [5]; SK + PMA, 1,000 ng/ml) of the same compound?
A: 65.4%

Q: And the inhibition at 0.05 µg/mL (T cells [5]; SK, 50 ng/ml)?
A: 44.5%

Q: And the inhibition at 0.1 µg/mL (T cells [5]; SK, 100 ng/ml)?
A: 49.1%

Q: And the inhibition at 0.5 µg/mL (T cells [5]; SK, 500 ng/ml)?
A: 75.2%

Q: And the inhibition at 1 µg/mL (T cells [5]; SK, 1,000 ng/ml)?
A: 84.2%
